Reference: PubChem BioAssay (NCI)
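Test compounds were applied to cells in 96-well plates for 48 hours at 5 doses. Here, GI50 denotes the concentration required for 50% inhibition of growth. TGI marks complete inhibition of growth.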

How the values were obtained:
Assay in all cases: inhibition of tumour cell growth, NCI panel, 48 h
DMS 273 small cell lung = tested on: DMS 273 small cell lung
M19-MEL melanoma = tested on: M19-MEL melanoma
DLD-1 colon = tested on: DLD-1 colon
NCI/ADR-RES ovarian = tested on: NCI/ADR-RES ovarian
T-47D breast = tested on: T-47D breast
BT-549 breast = tested on: BT-549 breast
RXF-631 renal = tested on: RXF-631 renal
MDA-N = tested on: MDA-N
XF 498 CNS = tested on: XF 498 CNS

Row | Structure (SMILES) | TGI (M19-MEL melanoma) | TGI (DLD-1 colon) | GI50 (NCI/ADR-RES ovarian) | TGI (NCI/ADR-RES ovarian) | GI50 (T-47D breast) | TGI (T-47D breast) | GI50 (BT-549 breast) | TGI (BT-549 breast) | other results
1 | C/C(=N/O)C1CC=C(S(=O)(=O)c2ccccc2)C1 (stereo not drawn) | > 100 µM | > 100 µM |  |  |  |  |  |  | TGI (DMS 273 small cell lung): > 100 µM
2 | CC/C(=N\Nc1nc2ccccc2n1C)c1ccccn1 |  |  | 0.0382 µM | 4.9 µM | < 0.01 µM | 4.59 µM | 0.243 µM | 12.8 µM | 
3 | Clc1ccc(-c2nc3c(-c4ccc(Cl)cc4)nc(-c4ccccc4)cn3c2-c2ccc(Cl)cc2)cc1 |  |  | > 50 µM | > 50 µM | > 50 µM | > 50 µM | 14.2 µM | > 50 µM | 
4 | CC(=O)NNc1nc(C)c(C(=O)NNC(=O)C(=O)Nc2ccc(C)c(C)c2)s1 | > 100 µM | > 100 µM |  |  |  |  |  |  | TGI (DMS 273 small cell lung): > 100 µM
5 | COC(=O)C(C(=O)C(=O)Nc1cccc(O)c1)c1nc2ccc(Cl)cc2[nH]c1=O (stereo not drawn) | > 100 µM | > 100 µM |  |  |  |  |  |  | TGI (RXF-631 renal): > 100 µM
6 | COc1cc(CNC(=O)/C=C/C=C/c2ccc3c(c2)OCO3)ccc1OCc1cn(-c2ccc(Cl)c(Cl)c2)nn1 |  |  | 1.42 µM | 4.93 µM | 1.17 µM | 3.49 µM | 1.83 µM | 4.46 µM | 
7 | Nc1ccc2c(c1)C(=O)c1ccc(F)cc1-2 |  |  |  | > 100 µM |  | > 100 µM |  | > 100 µM | TGI (MDA-N): > 100 µM
8 | O=C1Cc2cc(CCn3ccnc3)c(Cl)cc2N1 |  |  | 5.46 µM | > 100 µM | 75.6 µM | > 100 µM | 9.51 µM | > 100 µM | 
9 | CC(=O)Nc1ccc2nncnc2c1 |  |  |  | > 100 µM |  | > 100 µM |  | > 100 µM | TGI (MDA-N): > 100 µM
10 | CCN1CCN(CCOc2ccc(CNc3ccc4nc(CCC5CCCCC5)[nH]c4c3)cc2)CC1 |  |  | 3.11 µM | 11.2 µM | 1.93 µM | 5.41 µM | 1.58 µM | 3.04 µM | 
11 | Cn1cc(-c2csc(-c3c[nH]c4ncccc34)n2)c2cc(Br)cnc21 |  |  | 3.89 µM | > 100 µM | 1.8 µM | > 100 µM | 20.5 µM | > 100 µM | 
12 | CCCc1cc(=O)oc2c(C(=O)CC(C)C)c(O)c(CC=C(C)C)c(O)c12 |  |  | 8.6 µM | 48.1 µM | 9.33 µM | 40.3 µM | 7.85 µM | 42.4 µM | 
13 | COc1cc2c(cc1OC)C(CCc1ccc(Cl)cc1)N(C)CC2 (stereo not drawn) |  |  | 17.7 µM | 39.4 µM | 23.8 µM | 76.8 µM | 33.5 µM | > 100 µM | 
14 | O=c1[nH]c(=S)[nH]c2c1sc(=S)n2-c1ccccc1 | > 100 µM | > 100 µM |  |  |  |  |  |  | TGI (DMS 273 small cell lung): > 100 µM; TGI (XF 498 CNS): > 100 µM
15 | CCCOc1ccc(/C(Cl)=C(\C=O)c2ccc(OC)c(OC)c2)cc1OCCC | 31.1 µM | > 100 µM |  |  |  |  |  |  | TGI (DMS 273 small cell lung): 40.1 µM; TGI (XF 498 CNS): 33.1 µM
16 | Cc1cccc(CN(C)c2ccc(CO)c(Cl)c2)c1 |  |  | 17.2 µM | 59.3 µM | 1.04 µM | 7.66 µM | 15.8 µM | 42.9 µM | 

Row | Structure (SMILES) | TGI (M19-MEL melanoma) | TGI (DLD-1 colon) | GI50 (NCI/ADR-RES ovarian) | TGI (NCI/ADR-RES ovarian) | GI50 (T-47D breast) | TGI (T-47D breast) | GI50 (BT-549 breast) | TGI (BT-549 breast) | other results
17 | C=C1CC[C@@H]2C(C)(C)[C@@H](O)CC[C@@]2(C)[C@@H]1COc1ccc2ccc(=O)oc2c1 |  |  | 10.5 µM | 30.8 µM | 5.81 µM | 32.5 µM | 6.65 µM | 20.1 µM | 
18 | CC(=O)CC(=O)CCCC(=O)Nc1ccc(Cl)cc1C | > 100 µM | > 100 µM |  |  |  |  |  |  | TGI (DMS 273 small cell lung): > 100 µM; TGI (RXF-631 renal): > 100 µM
19 | O=C1NC(=NCC(CO)c2ccccc2)S/C1=C\c1ccc2ncccc2c1 (stereo not drawn) |  |  | > 25 µM | > 25 µM | 25 µM | > 25 µM | 13.3 µM | > 25 µM | 
20 | COc1cc2c(cc1OCCCCNC(=O)c1cc3ccccc3[nH]1)N=CC1CCCN1C2=O (stereo not drawn) |  |  | 20.9 µM | > 100 µM | 21.7 µM | > 100 µM | 8.79 µM | 51.1 µM | 
21 | O=C(Nc1cccc(Cl)c1)Nc1cccc(Cl)c1 |  |  |  |  | 2.28 µM | > 100 µM | > 100 µM | > 100 µM | 
22 | COc1ccc(/C=C2\N=C(c3ccccc3)OC2=O)c(OCc2ccccc2)c1 | > 100 µM | 77.2 µM |  |  |  |  |  |  | TGI (DMS 273 small cell lung): > 100 µM
23 | COc1ccc(CN2c3ccccc3Sc3ccccc32)cc1F |  |  | 0.322 µM |  |  |  | 1.34 µM | > 23.4 µM | 
24 | CCOP(=O)(CCP(=O)(OCC)OCC)OCC.C[CH2][Sn]([Cl])([Cl])[CH2]C | > 60.4 µM | > 79 µM | > 100 µM | > 100 µM | 18.5 µM | 40.9 µM | 17.8 µM | 33.8 µM | GI50 (MDA-N): > 100 µM; TGI (MDA-N): > 100 µM; GI50 (DMS 273 small cell lung): > 75.1 µM; TGI (DMS 273 small cell lung): > 100 µM; GI50 (M19-MEL melanoma): 24.8 µM; GI50 (DLD-1 colon): 27.7 µM
25 | COc1ccc(Nc2c3ccccc3nc3c2c2ccccc2n3C)cc1 |  |  | 34 µM | > 100 µM |  |  | 11 µM | 43.4 µM | 
26 | O=[N+]([O-])c1cccc(C2SCc3nc4ccccc4n32)c1 (stereo not drawn) | > 100 µM | > 100 µM |  |  |  |  |  |  | TGI (DMS 273 small cell lung): > 100 µM
27 | C[N+](C)(C)CCOP(=O)(O)OP(=O)([O-])OCC1CCC(n2ccc(N)nc2=O)O1 (stereo not drawn) |  |  |  | > 100 µM |  | > 100 µM |  | > 100 µM | TGI (MDA-N): > 100 µM
28 | Cc1c2ccccc2c(C)c2c3c(ccc12)C(=O)C=CC3=O | 35.8 µM | 40.8 µM |  |  |  |  |  |  | TGI (DMS 273 small cell lung): > 100 µM; TGI (XF 498 CNS): 31.6 µM
29 | CC(C)=CC/C=C(/C)[C@H]1CC[C@]2(C)[C@@H]1CC[C@@H]1[C@@]3(C)CCC(=O)NC(C)(C)[C@@H]3CC[C@]12C |  |  | 22.2 µM | 55.6 µM | 19.8 µM | 91 µM | 18.7 µM | 43.5 µM | 
30 | COC(=O)/C(C#N)=C\N1CCN(C(=O)c2ccco2)C1=S |  |  | 24 µM | 58.4 µM | 4.63 µM | 67.1 µM | 4.16 µM | 13.6 µM | 
31 | CCN1CCC[C@H]1c1cc(O)c2c(c1OC)C[C@H]1C[C@H]3[C@H](N)C(=O)C(C(N)=O)=C(O)[C@@]3(O)C(=O)C1=C2O |  |  | 0.435 µM | > 61.5 µM | 0.0448 µM | 1.47 µM | 0.0719 µM | 1.28 µM | 
